Assay results: patent publication US10093623B2, “Cyclic amides as MetAP-2 inhibitors” (MERCK PATENT GmbH, priority 2012, dated 2018)

Biological target: MetAP-2 (Homo sapiens, UniProt P50579)
Test: MetAP-2 activity measurement (coupled enzymatic reactions, Met-Arg-Ser substrate, dianisidine detection at 450 nm)
Type: biochemical
Details: Inhibition of MetAP-2; read-out: IC50 enzyme
Outline: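 Rate read from the linear part of the 450 nm absorbance trace. Dianisidine oxidation by peroxidase reports H2O2 made when amino acid oxidase acts on methionine cleaved from MAS tripeptide, one mol dye per mol Met; extinction coefficient gives molar activity.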

Sequence of MetAP-2 (P50579 whole entry, species assumed): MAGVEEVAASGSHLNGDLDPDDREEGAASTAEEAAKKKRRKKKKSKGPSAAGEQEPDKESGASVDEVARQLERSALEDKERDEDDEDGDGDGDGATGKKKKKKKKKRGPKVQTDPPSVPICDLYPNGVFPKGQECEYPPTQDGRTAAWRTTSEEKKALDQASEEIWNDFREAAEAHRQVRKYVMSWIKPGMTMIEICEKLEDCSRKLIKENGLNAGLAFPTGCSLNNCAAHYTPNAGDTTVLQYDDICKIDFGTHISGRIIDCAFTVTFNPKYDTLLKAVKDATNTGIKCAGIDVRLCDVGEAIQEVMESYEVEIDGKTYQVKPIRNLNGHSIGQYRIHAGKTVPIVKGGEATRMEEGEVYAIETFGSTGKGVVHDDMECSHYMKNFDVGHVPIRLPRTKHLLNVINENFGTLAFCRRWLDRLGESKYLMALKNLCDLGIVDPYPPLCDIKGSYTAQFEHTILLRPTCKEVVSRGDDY

IC50 [nM]	Structure (SMILES)
10 to 1000	O=C(NCc1cc(F)cc(Cl)c1)[C@@]1(O)CCN(c2ccc3[nH]c(=O)sc3c2)C1=O [B77, N-(3-Chloro-5-fluorobenzyl)-(S)-3-hydroxy-2-oxo-1-(2-oxo-2,3-dihydrobenzothiazol-6-yl)-pyrrolidine-3-carboxamide]
1000 to 10000	NC(=O)c1cc2cc(N3CC[C@@](O)(C(=O)NCc4cc(F)cc(Cl)c4)C3=O)ccc2[nH]1 [B79, 5-[(R)-3-(3-Chloro-5-fluorobenzylcarbamoyl)-3-hydroxy-2-oxopyrrolidin-1-yl]-1H-indole-2-carboxamide]
10 to 1000	O=C(NCc1cc(F)cc(Cl)c1)[C@@]1(O)CCCN(Cc2ccccc2)C1=O [A81, N-(3-Chloro-5-fluorobenzyl)-(S)-1-benzyl-3-hydroxy-2-oxopiperidine-3-carboxamide]
1000 to 10000	CNC(=O)CN1CCC(O)(C(=O)NCc2cc(F)cc(Cl)c2)C1=O (centres unmarked) [A208, N-(3-Chloro-5-fluorobenzyl)-3-hydroxy-1-methylcarbamoyl-methyl-2-oxopyrrolidine-3-carboxamide]
10 to 1000	O=C(NCc1cc(F)cc(Cl)c1)C1(O)CCN(c2ccc3[nH]c(=O)ccc3c2)C1=O (centres unmarked) [A147, N-(3-Chloro-5-fluorobenzyl)-3-hydroxy-2-oxo-1-(2-oxo-1,2-dihydroquinolin-6-yl)pyrrolidine-3-carboxamide]
10 to 1000	O=C(NCCO)c1cccc(N2CC[C@](O)(C(=O)NCc3cc(F)cc(Cl)c3)C2=O)c1 [A88, N-(3-Chloro-5-fluorobenzyl)-(S)-3-hydroxy-1-[3-(2-hydroxy-ethylcarbamoyl)phenyl]-2-oxo-pyrrolidine-3-carboxamide]
10 to 1000	CN1CCN(C(=O)c2cc3cc(N4CC[C@](O)(C(=O)NCc5cc(F)cc(Cl)c5)C4=O)ccc3[nH]2)CC1 [B122, N-(3-Chloro-5-fluorobenzyl)-(S)-3-hydroxy-1-[2-(4-methyl-piperazin-1-carbonyl)-1H-indol-5-yl]-2-oxopyrrolidine-3-carboxamide]
10 to 1000	O=C1N(CC2CCCCC2)CCC[C@]1(O)CNCc1cc(F)cc(Cl)c1 [B63, (S)-3-[(3-Chloro-5-fluorobenzylamino)methyl]-1-cyclohexylmethyl-3-hydroxy-piperidin-2-one]
10 to 1000	O=C(NCc1cc(F)cc(Cl)c1)[C@@]1(O)CCN(OCc2ccccc2)C1=O [B136, N-(3-Chloro-5-fluorobenzyl)-(S)-1-benzyloxy-3-hydroxy-2-oxo-pyrrolidine-3-carboxamide]
10 to 1000	O=C(NCc1cc(F)cc(Cl)c1)[C@@]1(O)CCN(c2cnc3[nH]cnc3c2)C1=O [B92, N-(3-Chloro-5-fluorobenzyl)-(S)-3-hydroxy-1-(3H-imidazo-[4,5-b]pyridin-6-yl)-2-oxo-pyrrolidine-3-carboxamide]
10 to 1000	O=C(O)c1cc2cc(N3CC[C@](O)(C(=O)NCc4cc(F)cc(Cl)c4)C3=O)ccc2[nH]1 [B84, 5-[(S)-3-(3-Chloro-5-fluorobenzylcarbamoyl)-3-hydroxy-2-oxopyrrolidin-1-yl]-1H-indole-2-carboxylic acid]
10 to 1000	O=C(NCCCO)c1cccc(N2CC[C@](O)(C(=O)NCc3cc(F)cc(Cl)c3)C2=O)c1 [A94, N-(3-Chloro-5-fluorobenzyl)-(S)-3-hydroxy-1-[3-(3-hydroxy-propylcarbamoyl)phenyl]-2-oxo-pyrrolidine-3-carboxamide]
10 to 1000	O=C(NCCc1ccccc1F)[C@@]1(O)CCN(c2ccc3[nH]ccc3c2)C1=O [B14, (S)-3-hydroxy-1-(1H-indol-5-yl)-2-oxopyrrolidine-3-carboxylic acid[2-(2-fluorophenyl)ethyl]-amide]
> 10000	NC(=O)[C@@]1(O)CCN(c2ccc3c(c2)CCC(=O)N3)C1=O [B103, (S)-3-Hydroxy-2-oxo-1-(2-oxo-1,2,3,4-tetrahydroquinolin-6-yl)-pyrrolidine-3-carboxamide]
> 10000	C=C(Cc1ccccc1)C(=O)[C@]1(O)CCN(c2ccccc2)C1=O [A111, (R)-3-(2-Benzylacryloyl)-3-hydroxy-1-phenylpyrrolidin-2-one]
10 to 1000	O=C(NCc1cc(F)cc(Cl)c1)[C@@]1(O)CCN(c2ccc3[nH]c(=O)[nH]c3c2)C1=O [B71, N-(3-Chloro-5-fluorobenzyl)-(S)-3-hydroxy-2-oxo-1-(2-oxo-2,3-dihydro-1H-benzimidazol-5-yl)-pyrrolidine-3-carboxamide]
10 to 1000	O=C1CCc2cc(N3CC[C@](O)(C(=O)NCc4cccc(F)c4)C3=O)ccc2N1 [B56, N-(3-Fluorobenzyl)-(S)-3-hydroxy-2-oxo-1-(2-oxo-1,2,3,4-tetrahydroquinolin-6-yl)-pyrrolidine-3-carboxamide]
> 10000	O=C(NCc1cc(F)cc(Cl)c1)[C@]1(O)CCN(c2ccc3[nH]cc(C(F)(F)F)c3c2)C1=O [B73, N-(3-Chloro-5-fluorobenzyl)-(R)-3-hydroxy-2-oxo-1-(3-trifluoro-methyl-1H-indol-5-yl)pyrrolidine-3-carboxamide]
> 10000	COc1ccc(CN2CC[C@@](O)(C(=O)NCc3cc(F)cc(Cl)c3)C2=O)cc1 [A182, N-(3-Chloro-5-fluorobenzyl)-(R)-3-hydroxy-1-(4-methoxybenzyl)-2-oxopyrrolidine-3-carboxamide]
10 to 1000	O=C(NCc1cc(F)cc(Cl)c1)C1(O)CCN(c2cnc3[nH]cnc3c2)C1=O (centres unmarked) [B35, N-(3-Chloro-5-fluorobenzyl)-3-hydroxy-1-(3H-imidazo[4,5-b]-pyridin-6-yl)-2-oxopyrrolidine-3-carboxamide]
10 to 1000	O=C(NCc1cc(F)cc(Cl)c1)[C@@]1(O)CCN(c2ccc3[nH]c(-c4nc5ccccc5[nH]4)cc3c2)C1=O [B133, N-(3-Chloro-5-fluorobenzyl)-(S)-1-[2-(1H-benzoimidazol-2-yl)-1H-indol-5-yl]-3-hydroxy-2-oxo-pyrrolidine-3-carboxamide]
> 10000	CC1(C)CN(c2ccccc2)C(=O)[C@]1(O)C(=O)NCc1cc(F)cc(Cl)c1 [A109, N-(3-Chloro-5-fluorobenzyl)-(R)-3-hydroxy-4,4-dimethyl-2-oxo-1-phenylpyrrolidine-3-carboxamide]
10 to 1000	Cc1cc2cc(N3CC[C@](O)(C(=O)NCc4cc(F)cc(Cl)c4)C3=O)cnc2[nH]1 [B62, N-(3-Chloro-5-fluorobenzyl)-(S)-3-hydroxy-1-(2-methyl-1H-pyrrolo[2,3-b]pyridin-5-yl)-2-oxo-pyrrolidine-3-carboxamide]
1000 to 10000	Cc1nnc(CN2CCC(O)(C(=O)NCc3cc(F)cc(Cl)c3)C2=O)o1 (centres unmarked) [A290, N-(3-Chloro-5-fluorobenzyl)-3-hydroxy-1-(5-methyl-1,3,4-oxadiazol-2-ylmethyl)-2-oxo-pyrrolidine-3-carboxamide]
> 10000	O=C(NCc1cc(F)cc(Cl)c1)[C@]1(O)CCN(c2ccc3cc[nH]c3c2)C1=O [A154, N-(3-Chloro-5-fluorobenzyl)-(R)-3-hydroxy-1-(1H-indol-6-yl)-2-oxopyrrolidine-3-carboxamide]

Structure (SMILES)	IC50 [nM]
CC(C)(C)OC(=O)Nc1ccc(N2CCC(O)(C(=O)NCc3cc(F)cc(Cl)c3)C2=O)cc1CCC(=O)O (centres unmarked) [B106, 3-{2-tert-Butoxycarbonylamino-5-[3-(3-chloro-5-fluorobenzyl-carbamoyl)-3-hydroxy-2-oxo-pyrrolidin-1-yl]phenyl}propionic acid]	1000 to 10000
